Measured values published in patent publication US20090163490A1, “Pyrrolopyrimidine Derivatives Used As HSP90 Inhibitors” (VERNALIS (R&D) LTD., priority 2006, published 2009).

Target: T1, human full-length HSP90 (Homo sapiens, UniProt P08238)
T1 construct: E. coli expressed human full-length HSP90 protein, purified >95%; made in house; host or cells: E. coli
Experiment: Fluorescence polarization (FP) binding assay
Conditions: competitive displacement of fluorescein-labelled probe from human full-length HSP90; activity range; read-out: activity in the fluorescence polarization assay
Text: Fluorescence Polarization Assay
Fluorescence polarization {also known as fluorescence anisotropy} measures the rotation of a fluorescing species in solution, where the larger molecule the more polarized the fluorescence emission. When the fluorophore is excited with polarized light, the emitted light is also polarized. The molecular size is proportional to the polarization of the fluorescence emission.
The fluoroscein-labelled probe—
binds to HSP90 {full-length human, full-length yeast or N-terminal domain HSP90} and the anisotropy {rotation of the probe:protein complex} is measured.
Test compound is added to the assay plate, left to equilibrate and the anisotropy measured again. Any change in anisotropy is due to competitive binding of compound to HSP90, thereby releasing probe.
Stored at room temperature. • 3) BSA (bovine serum albumen) 10 mg/ml (New England Biolabs # B9001S) • 4) 20 mM probe in 100% DMSO stock concentration. Stored in the dark at RT. Working concentration is 200 nM diluted in AR water and stored at 4° C.
• 1) Add 100 μl×buffer to wells 1A and 12A(=FP BLNK) • 2) Prepare assay mix—all reagents are kept on ice with a lid on the bucket as the probe is light-sensitive.
• 3) Aliquot 100 μl assay mix to all other wells • 4) Seal plate and leave in dark at room temp for 20 minutes to equilibrate
This gives 2.5 mM {50×} stock cpd−assuming cpds 20 mM. • 4) Repeat for wells A2 to A10. Control in columns 11 and 12. • 5) Transfer 5 μl from row A to row B—not column 12. Mix well. • 6) Transfer 5 μl from row B to row C. […] Add 2 μl of 100 mM standard cpd to wells B12-H12 {is positive control} • 13) The Z′ factor is calculated from zero controls and positive wells.

T1 sequence (P08238 whole entry): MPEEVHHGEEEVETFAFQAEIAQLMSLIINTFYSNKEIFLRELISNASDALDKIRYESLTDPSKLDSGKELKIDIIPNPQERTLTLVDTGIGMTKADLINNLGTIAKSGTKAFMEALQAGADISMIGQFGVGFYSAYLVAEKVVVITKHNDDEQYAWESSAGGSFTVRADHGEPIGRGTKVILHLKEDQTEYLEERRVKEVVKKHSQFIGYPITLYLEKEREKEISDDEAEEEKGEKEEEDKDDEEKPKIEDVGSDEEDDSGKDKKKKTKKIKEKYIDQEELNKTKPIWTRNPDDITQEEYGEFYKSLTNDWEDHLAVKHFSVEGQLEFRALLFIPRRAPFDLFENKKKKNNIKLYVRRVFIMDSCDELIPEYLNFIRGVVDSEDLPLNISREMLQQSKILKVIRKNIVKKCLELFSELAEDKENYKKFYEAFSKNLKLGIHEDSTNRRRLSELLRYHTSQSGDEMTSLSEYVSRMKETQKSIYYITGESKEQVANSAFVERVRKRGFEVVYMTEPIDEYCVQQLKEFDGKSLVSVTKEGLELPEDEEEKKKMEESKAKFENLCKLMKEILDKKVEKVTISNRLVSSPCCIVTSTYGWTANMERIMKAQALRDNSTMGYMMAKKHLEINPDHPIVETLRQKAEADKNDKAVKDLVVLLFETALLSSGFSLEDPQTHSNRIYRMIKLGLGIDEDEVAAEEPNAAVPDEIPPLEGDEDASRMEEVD

Compound | IC50
CSc1nc(-c2ccccc2)c2c(C#N)c[nH]c2n1 [Example 2, 2-methylsulfanyl-4-phenyl-7H-pyrrolo[2,3-d]pyrimidine-5-carbonitrile] | < 500 nM
CSc1nc(-c2ccc(C#N)cc2)c2c(C#N)c[nH]c2n1 [Example 3, 4-(4-cyano-phenyl)-2-methylsulfanyl-7H-pyrrolo[2,3-d]pyrimidine-5-carbonitrile] | < 500 nM
CSc1nc(-c2ccc(C)cc2C)c2c(Br)c[nH]c2n1 [Example 5, 5-Bromo-4-(2,4-dimethyl-phenyl)-2-methylsulfanyl-7H-pyrrolo[2,3-d]pyrimidine] | 500 to 10000 nM
CSc1nc(-c2ccc(C)cc2C)c2c(C)c[nH]c2n1 [Example 6, 4-(2,4-dimethyl-phenyl)-5-methyl-2-methylsulfanyl-7H-pyrrolo[2,3-d]pyrimidine] | 500 to 10000 nM
CCN(CC)CCOc1cccc(-c2nc(SC)nc3[nH]cc(C#N)c23)c1 [Example 7] | 500 to 10000 nM
Cc1ccc(-c2ncnc3[nH]cc(C#N)c23)c(C)c1 [Example 9, 4-(2,4-dimethyl-phenyl)-7H-pyrrolo[2,3-d]pyrimidine-5-carbonitrile] | 500 to 10000 nM
CSc1nc(-c2ccc(C)cc2C)c2c(C(F)(F)F)c[nH]c2n1 [Example 10, 4-(2,4-Dimethyl-phenyl)-2-methylsulfanyl-5-trifluoromethyl-7H-pyrrolo[2,3-d]pyrimidine] | 500 to 10000 nM
CSc1nc(-c2ccc(C)cc2C)c2c(C3CC3)c[nH]c2n1 [Example 11, 5-Cyclopropyl-4-(2,4-dimethyl-phenyl)-2-methylsulfanyl-7H-pyrrolo[2,3-d]pyrimidine] | > 10000 nM
Cc1cc(F)ccc1-c1nc(OCCN2CCOCC2)nc2[nH]cc(C#N)c12 [Example 14, 4-(4-Fluoro-2-methyl-phenyl)-2-(2-morpholin-4-yl-ethoxy)-7H-pyrrolo[2,3-d]pyrimidine-5-carbonitrile] | 500 to 10000 nM
Cc1cc(F)ccc1-c1nc(N2CCN(C)CC2)nc2[nH]cc(C#N)c12 [Example 16, 4-(4-Fluoro-2-methyl-phenyl)-2-(4-methyl-piperazin-1-yl)-7H-pyrrolo[2,3-d]pyrimidine-5-carbonitrile] | > 10000 nM

Second part, the molecule after the results:

IC50 | Compound
< 500 nM | CSc1nc(-c2ccc(C)cc2C)c2c(C#N)c[nH]c2n1 [Example 1, 4-(2,4-dimethyl-phenyl)-2-methylsulfanyl-7H-pyrrolo[2,3-d]pyrimidine-5-carbonitrile]
< 500 nM | CSc1nc(-c2ccc(F)cc2C)c2c(C#N)c[nH]c2n1 [Example 4, 4-(2-methyl-4-fluoro-phenyl)-2-methylsulfanyl-7H-pyrrolo[2,3-d]pyrimidine-5-carbonitrile]
< 500 nM | Cc1ccc(-c2nc(Cl)nc3[nH]cc(C#N)c23)c(C)c1 [Example 8, 2-Chloro-4-(2,4-dimethyl-phenyl)-7H-pyrrolo[2,3-d]pyrimidine-5-carbonitrile]
500 to 10000 nM | COc1nc(-c2ccc(F)cc2C)c2c(C#N)c[nH]c2n1 [Example 12, 4-(4-Fluoro-2-methyl-phenyl)-2-methoxy-7H-pyrrolo[2,3-d]pyrimidine-5-carbonitrile]
> 10000 nM | Cc1cc(F)ccc1-c1nc(OCCN2CCCC2)nc2[nH]cc(C#N)c12 [Example 13, 4-(4-Fluoro-2-methyl-phenyl)-2-(2-pyrrolidin-1-yl-ethoxy)-7H-pyrrolo[2,3-d]pyrimidine-5-carbonitrile]
500 to 10000 nM | Cc1cc(F)ccc1-c1nc(OCCN2CCCC2=O)nc2[nH]cc(C#N)c12 [Example 15, 4-(4-Fluoro-2-methyl-phenyl)-2-[2-(2-oxo-pyrrolidin-1-yl)-ethoxy]-7H-pyrrolo[2,3-d]pyrimidine-5-carbonitrile]
500 to 10000 nM | CNc1nc(-c2ccc(F)cc2C)c2c(C#N)c[nH]c2n1 [Example 17, 4-(4-Fluoro-2-methyl-phenyl)-2-methylamino-7H-pyrrolo[2,3-d]pyrimidine-5-carbonitrile]
500 to 10000 nM | CCc1nc(-c2ccc(F)cc2C)c2c(C#N)c[nH]c2n1 [Example 18, 2-Ethyl-4-(4-fluoro-2-methyl-phenyl)-7H-pyrrolo[2,3-d]pyrimidine-5-carbonitrile]
